Consider one molecule from US20100249121A1, “USE OF TETRAMIC ACID DERIVATIVES FOR C[…]-TR[…]” (priority 2007, published 2010).

Common to all, as to type: in vivo
Assay [1] relates to Bean Golden Mosaic Virus (BGMV), virus-transferring vector Bemisia argentifolii. The assay can be described thus: Example 3: field plots of bush beans treated against the vector, virus infestation scored. As to conditions: 72 g of a.i./ha, 200 SC, three applications at 7-day intervals, 16 days after the first treatment, BGMV on bush beans. As to the method:
In three replications, plots of a size of 12 m^2 with bush beans of the cultivar “Carioca” are treated against the virus-transferring vector Bemisia argentifolii. Application is carried out using a pressurized air-operated knapsack sprayer. The active compound example (I-2) (240 SC) in a tank mix with 0.186% a.i. soya oil Natur'L Oleo (OL 930) and the commercial standard imidacloprid (200 SC) are applied at the stated application rates. Three applications are carried out at intervals of in each case 7 days. The water application rate is in each case 300 l/ha.
Evaluation is carried out 16 days after the first treatment by scoring the virus infestation with the Bean Golden Mosaic Virus (BGMV) on the plants.
All 10 plants in the control were infected by the BGMV.

Assay [2] relates to Tomato Yellow Leaf Curl Virus (TYLCV), virus-transferring vector Bemisia argentifolii. Briefly: Example 1: field plots of tomatoes treated against the vector, virus infestation scored. As to conditions: 72 g of a.i./ha, 200 SC, four applications at 7-day intervals, 25 days after the 4th treatment, TYLCV on tomatoes. As to the method: In three replications, plots of a size of 7.5 m^2 with tomatoes of the cultivar “Jumbo” are treated against the virus-transferring vector Bemisia argentifolii. Application is carried out using a motor-operated knapsack sprayer. The active compound example (I-2) (240 SC) in a tank mix with 0.186% a.i. soya oil Natur'L Oleo (OL 930) and the commercial standard imidacloprid (200 SC) are applied at the stated application rates. Four applications are carried out at intervals of in each case 7 days using a water application rate of in each case 300 l, 300 l, 500 l and 600 l/ha.
Evaluation is carried out 25 days after the 4th treatment by scoring the virus infestation with the Tomato Yellow Leaf Curl Virus (TYLCV) on the plants.
In the control, 11.7 of 15 plants were infected by the TYLCV.

Assay [3] relates to Tomato Spotted Wilt Virus (TSWV). The assay can be described thus: Example 4: field plots of tomatoes, tank mix versus single actives, virus infection scored. To be noted: 72 g of a.i./ha, SC 200 on its own, four applications at 7-day intervals, 25 days after the treatment. The source says:
The expected activity for a given combination of two active compounds can be calculated according to S. R. Colby, Weeds 15 (1967), 20-22 as follows:
If • X is the degree of control, expressed in % of the untreated control, when using the active compound A at an application rate of m g/ha or in a concentration of m ppm, • Y is the degree of control, expressed in % of the untreated control, when using the active compound B at an application rate of n g/ha or in a concentration of n ppm and • E is the degree of control, expressed in % of the untreated control, when using the active compounds A and B at application rates of m and n g/ha or in a concentration of m and n ppm, then
If the actual degree of control is greater than the calculated degree of control, the control of the combination is superadditive, i.e. a synergistic effect is present. In this case, the degree of control actually observed must be greater than the value for the expected kill rate (E) calculated using the formula given above.
After the desired period of time, the control in % is determined. 100% means that no plants have been infected by viruses; 0% means that all plants have been infected by viruses.
In three replications, plots of a size of 7.5 m^2 with tomatoes of the cultivar “Jumbo” are treated against the virus-transferring vector Bemisia argentifolii using a compressed air-operated sprayer. […]

The subject of assay [4] is Tomato Yellow Leaf Curl Virus (TYLCV), virus-transferring vector Bemisia argentifolii. Briefly: Example 2: field plots of tomatoes treated against the vector, virus infestation scored. As to conditions: 72 g of a.i./ha, 200 SC, three applications at 7-day intervals, 14 days after the 3rd treatment, TYLCV on tomatoes. As to the method:
In three replications, plots of a size of 7.5 m^2 with tomatoes of the cultivar “Jumbo” are treated against the virus-transferring vector Bemisia argentifolii. Application is carried out using a pressurized air-operated knapsack sprayer. The active compound example (I-2) (240 SC) in a tank mix with 0.186% a.i. soya oil Natur'L Oleo (OL 930) and the commercial standard imidacloprid (200 SC) are applied at the stated application rates. Three applications are carried out at intervals of in each case 7 days. The water application rates are 300 l/ha, 400 l/ha and 600 l/ha.
Evaluation is carried out 14 days after the 3rd treatment by scoring the virus infestation with the Tomato Yellow Leaf Curl Virus (TYLCV) on the plants.
All 18 plants in the control were infected by the TYLCV.

Turning to `O=[N+]([O-])/N=C1\NCCN1Cc1ccc(Cl)nc1` [imidacloprid], the “Degree of control according to Abbott (%) 16 d” value in assay [1] amounted to 60.0%. Further, the figures for the “Degree of control according to Abbott (%) 25 d” value in assay [2] and in assay [3] were 40.0% and 80%, respectively. For the same molecule, in assay [4], the “Degree of control according to Abbott (%) 14 d” value is listed as 33%.
